Test systems include NCI-H522 lung; SR leukemia; LOX IMVI melanoma; HOP-62 NSCLC; U251 CNS; COLO 205 colon; SF-268 CNS; SN12C renal; SNB-75 CNS; RXF 393 renal.
What all share (assay): growth of human tumour cells (NCI), 48 h

“And” between values parts separate entries of the source, which are not always exact repeats. Equal entries are not always repeated.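 1) Cells in 96-well plates. 2) Compound, 48 h, 5 concentrations. 3) Linear interpolation between surrounding doses. 4) Unreached endpoint = highest concentration. GI50: concentration for 50% inhibition of growth. At the TGI there is no net growth.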 Some results are limits rather than exact numbers.

For `Cc1ccc(C(SCC(N)C(=O)O)(c2ccccc2)c2ccc(C)cc2)cc1` (stereo not given), the GI50 is 0.132 µM with NCI-H522 lung; 0.204 µM in the test on SR leukemia; 0.602 µM in the test on LOX IMVI melanoma; 2 µM in the test with HOP-62 NSCLC; 0.101 µM in the test on U251 CNS; 0.241 µM with COLO 205 colon. Besides, the GI50 is 0.257 µM in the test with SF-268 CNS, 2.33 µM in the test on SN12C renal, 0.334 µM in the test with SNB-75 CNS and 0.0957 µM in the test with RXF 393 renal. The TGI worked out at 2.58 µM in the test with NCI-H522 lung; 4.33 µM in the test with SR leukemia; 21.5 µM in the test with LOX IMVI melanoma; 18.9 µM in the test on HOP-62 NSCLC; 15.5 µM in the test with U251 CNS; 0.732 µM with COLO 205 colon. For the same compound, the TGI with SF-268 CNS is 23.9 µM; in the test with SN12C renal it was 23.8 µM; with SNB-75 CNS it was 17.7 µM; with RXF 393 renal it was 3.52 µM.
Consider `Clc1coc2nc3ccccc3c(Nc3ccc4c(c3)OCO4)c12`, for which the GI50 in the test on NCI-H522 lung was 2.17 µM; with SR leukemia, 0.201 µM; in the test on LOX IMVI melanoma, 2.01 µM; with HOP-62 NSCLC it was 0.781 µM; in the test with U251 CNS, 1.12 µM; in the test on COLO 205 colon, 2.05 µM. The GI50 in the test on SF-268 CNS was 5.6 µM; in the test with SN12C renal, 5.95 µM; with SNB-75 CNS it was 4.36 µM; in the test with RXF 393 renal, 1.51 µM. The TGI was greater than 23.3 µM with NCI-H522 lung; 0.938 µM in the test on SR leukemia; 13.6 µM with LOX IMVI melanoma; 21.9 µM with HOP-62 NSCLC; 11.5 µM in the test with U251 CNS; 30 µM in the test with COLO 205 colon. Also, the TGI in the test on SF-268 CNS is 54 µM; in the test with SN12C renal, greater than 100 µM; with SNB-75 CNS, greater than 100 µM; with RXF 393 renal it was 8.47 µM.
On to `O=c1n(CC2CO2)c(=O)n(CC2CO2)c(=O)n1CC1CO1` (stereo not given), for which the GI50 was 11.2 µM and 3.9 µM in the test on NCI-H522 lung; 13.2 µM and 1.5 µM in the test on SR leukemia; 12.3 µM and 6.12 µM in the test with LOX IMVI melanoma; 6.38 µM and 15.1 µM in the test on HOP-62 NSCLC; 5.47 µM in the test with U251 CNS; 25 µM and 11.1 µM with COLO 205 colon. Moreover, the GI50 in the test with SF-268 CNS was 11.7 µM and 3.66 µM; with SN12C renal, 17.7 µM and 3.55 µM; with SNB-75 CNS it was 6.8 µM and 21.1 µM; with RXF 393 renal, 4.01 µM. The TGI in the test with NCI-H522 lung was 28 µM and 45.8 µM and 22.9 µM; with SR leukemia it was 877 µM and > 100 µM; in the test on LOX IMVI melanoma, 47.5 µM and 102 µM and > 100 µM; in the test with HOP-62 NSCLC it was 38.8 µM and 96.1 µM and > 100 µM; in the test with U251 CNS, 32.4 µM and 67.2 µM and 32.2 µM; with COLO 205 colon, 78.4 µM and 52.2 µM and 25.5 µM. Further, the TGI in the test with SF-268 CNS is 241 µM and > 100 µM; in the test on SN12C renal, 52 µM and 88.1 µM and > 100 µM; in the test with SNB-75 CNS, 89.8 µM and > 100 µM; in the test on RXF 393 renal, 109 µM and 23.8 µM.
For the compound `COc1ccc2c(c1)C(C)Cc1c(Cl)ncnc1N2C` (stereo not given), the GI50 with NCI-H522 lung is 1.41 µM; in the test with SR leukemia, 0.45 µM; in the test with LOX IMVI melanoma, 0.218 µM; in the test with HOP-62 NSCLC it was 0.475 µM; in the test on U251 CNS, 0.478 µM; in the test with COLO 205 colon, 0.261 µM. The GI50 was 0.359 µM with SF-268 CNS, 1.29 µM in the test on SN12C renal, 0.557 µM in the test on SNB-75 CNS and 0.42 µM in the test on RXF 393 renal. Further, the TGI in the test on NCI-H522 lung is 4.02 µM; in the test on SR leukemia, greater than 19.8 µM; in the test on LOX IMVI melanoma it was 0.517 µM; in the test with HOP-62 NSCLC, 20.1 µM; in the test with U251 CNS, greater than 86.4 µM; in the test on COLO 205 colon, 0.777 µM. The TGI in the test on SF-268 CNS is 22.9 µM; with SN12C renal it was 23.6 µM; in the test on SNB-75 CNS it was greater than 54.6 µM; in the test on RXF 393 renal it was 3.83 µM.
With `COC(=O)C(C(=O)C(=O)Nc1cccc(OC)c1)c1cnc2ccccc2n1` (stereo not given), the TGI with NCI-H522 lung, in the test with SR leukemia, with LOX IMVI melanoma, with HOP-62 NSCLC, with U251 CNS and with COLO 205 colon was greater than 100 µM each time. For the same compound, the TGI in the test with SF-268 CNS, in the test on SN12C renal, in the test on SNB-75 CNS and in the test on RXF 393 renal was greater than 100 µM each time.
In the case of `NC(=NCCCOc1ccc(Cl)cc1)Nc1ccc(C(F)(F)F)cc1`, the GI50 with NCI-H522 lung was 1.75 µM; with SR leukemia, 1.77 µM; in the test on LOX IMVI melanoma, 1.46 µM; with HOP-62 NSCLC, 2.28 µM; with U251 CNS, 1.71 µM; with COLO 205 colon, 1.54 µM. Further, the GI50 with SF-268 CNS was 2.77 µM; with SN12C renal, 3.07 µM; in the test on SNB-75 CNS it was 0.914 µM; with RXF 393 renal, 1.42 µM. The TGI is 4.41 µM in the test with NCI-H522 lung; 5.95 µM with SR leukemia; 2.77 µM with LOX IMVI melanoma; 6.43 µM with HOP-62 NSCLC; 3.89 µM in the test on U251 CNS; 3.25 µM with COLO 205 colon. In addition, the TGI in the test on SF-268 CNS amounted to 15.9 µM; in the test with SN12C renal, 14.2 µM; in the test with SNB-75 CNS, 7.67 µM; with RXF 393 renal, 5.52 µM.
Take `Cn1cc(C2=C(c3ccc4ccccc4c3)C(=O)NC2=O)c2ccccc21`: the GI50 in the test on NCI-H522 lung is 12.1 µM; in the test with SR leukemia, 3.11 µM; in the test on LOX IMVI melanoma it was greater than 25 µM; in the test with HOP-62 NSCLC it was greater than 25 µM; in the test with U251 CNS, greater than 25 µM; in the test with COLO 205 colon, 20.8 µM. Also, the GI50 with SF-268 CNS was greater than 25 µM; with SN12C renal, greater than 25 µM; with SNB-75 CNS, 7.47 µM; with RXF 393 renal, greater than 25 µM. The TGI in the test with NCI-H522 lung, in the test on SR leukemia, in the test on LOX IMVI melanoma, with HOP-62 NSCLC, in the test on U251 CNS and with COLO 205 colon was greater than 25 µM each time. Moreover, the TGI in the test with SF-268 CNS, with SN12C renal, in the test with SNB-75 CNS and with RXF 393 renal was greater than 25 µM each time.

These data come from PubChem BioAssay (NCI).
